Assay results as given in patent US9133157B2, “HIV protease inhibitors” (Merck Canada Inc., priority 2011, dated 2015).

Target: WT HIV-1 protease (Human immunodeficiency virus type 1 group M subtype B (isolate HXB2) (HIV-1), UniProt P04585)
Assay: Assay for inhibition of microbial expressed HIV protease (Procedure A, peptide substrate, HPLC fluorescence detection)
Type: biochemical
Conditions: WT HIV-1 protease 10 pM, substrate 400 micromolar, pH 5.5, 30 min preincubation, 1 hour at 30° C.; read-out: Enzyme inhibition IC50
Procedure: The inhibition of WT HIV-1 protease was studied using the reaction of the protease (expressed in Eschericia coli) with a peptide substrate [Val-Ser-Gln-Asn-(betanaphthyl)Ala-Pro-Ile-Val (SEQ ID NO:1)]. Compounds were tested using Procedure A. In Procedure A, the test compound was first preincubated with the enzyme in assay buffer (50 mM sodium acetate, pH 5.5, 100 mM NaCl, and 0.1% BSA) for 30 minutes at room temperature. Substrate was then added to 400 micromolar in a total volume of 80 microliters containing 10 picomolar HIV-1 protease and the reaction was incubated for 1 hour at 30° C. The reaction was quenched with the addition of 120 microliters of 10% phosphoric acid. The product formation was determined after separation of product and substrate on a Zorbax Eclipse XDB-C18 column (Agilent Technologies, Santa Clara, Calif.) connected to an Agilent 1100 high performance liquid chromatography system with fluorescence detection (excitation 270 nanometer and emission 330 nanometer).

Compound | IC50
CC(C)CN(C(CO)c1ccc(CNC(=O)C(NC(=O)c2ccccc2)C(c2ccccc2)c2cnc[nH]2)s1)S(=O)(=O)c1ccc2ncsc2c1 (centres unmarked) [Example 132, N-[1-[[5-[1-(1,3-benzothiazol-6-ylsulfonyl(isobutyl)amino)-2-hydroxy-ethyl]-2-thienyl]methylcarbamoyl]-2-(1H-imidazol-5-yl)-2-phenyl-ethyl]benzamide] | 216 nM
COC(=O)N[C@H](C(=O)N[C@H](c1ccc([C@@H](CO)N(C(C)C)S(=O)(=O)c2ccc(N)cc2)s1)C(F)(F)F)C(c1ccccc1)c1ccccc1 [Example 77, N-[(1S)-1-{5-[(1R)-1-{[(4-aminophenyl)sulfonyl](propan-2-yl)amino}-2-hydroxyethyl]thiophen-2-yl}-2,2,2-trifluoroethyl]-Nα-(methoxycarbonyl)-β-phenyl-L-phenylalaninamide] | 23 nM
COC(=O)N[C@H](C(=O)N[C@H](c1ccc([C@@H](CO)N(CCC(C)(C)C)S(=O)(=O)c2cc3ccccc3[nH]2)s1)C(F)(F)F)C(c1ccccc1)c1ccccc1 [Example 55, N-[(1S)-1-(5-{(1R)-1-[(3,3-dimethylbutyl)(1H-indol-2-ylsulfonyl)amino]-2-hydroxyethyl}thiophen-2-yl)-2,2,2-trifluoroethyl]-Nα-(methoxycarbonyl)-β-phenyl-L-phenylalaninamide] | 45.8 nM
COC(=O)N[C@H](C(=O)N[C@H](c1ccc([C@@H](CO)N(CCC(C)(C)C)S(=O)(=O)c2ccc(-n3ncnn3)cc2)s1)C(F)(F)F)C(c1ccccc1)c1ccccc1 [Example 110] | 10.5 nM
COC(=O)N[C@H](C(=O)N[C@H](c1ccc([C@@H](CO)N(CCC(C)(C)C)S(=O)(=O)c2cn3ccnc3cn2)s1)C(F)(F)F)C(c1ccccc1)c1ccccc1 [Example 122, N-[(1S)-1-(5-{(1R)-1-[(3,3-dimethylbutyl)(imidazo[1,2-a]pyrazin-6-ylsulfonyl)amino]-2-hydroxyethyl}thiophen-2-yl)-2,2,2-trifluoroethyl]-Nα-(methoxycarbonyl)-β-phenyl-L-phenylalaninamide] | 5.78 nM
[2H]C([2H])([2H])C([2H])(N([C@H](CO)c1ccc([C@@H](NC(=O)[C@@H](NC(=O)OC)C(c2ccccc2)c2ccccc2)C(F)(F)F)s1)S(=O)(=O)c1ccc(N)cc1F)C([2H])([2H])[2H] [Example 108, N-[(1S)-1-{5-[(1R)-1-{[(4-amino-2-fluorophenyl)sulfonyl][(2-^2H)propan-2-yl]amino}-2-hydroxyethyl]thiophen-2-yl}-2,2,2-trifluoroethyl]-Nα-(methoxycarbonyl)-β-phenyl-L-phenylalaninamide] | 9.4 nM
COC(=O)N[C@H](C(=O)NCc1ccc([C@@H](CO)N(CC2CC(F)(F)C2)S(=O)(=O)c2ccc3cc[nH]c(=O)c3c2)s1)C(c1ccccc1)c1ccccc1 [Example 16] | 0.44 nM
COC(=O)N[C@H](C(=O)NC(C)c1ccc(C(CO)N(CCC(C)C)S(=O)(=O)c2ccc(CO)cc2)s1)C(c1ccccc1)c1ccccc1 (some centres unmarked) [Example 8] | 0.31 nM
COC(=O)N[C@H](C(=O)N[C@H](c1ccc([C@@H](CO)N(CCC(C)(C)C)S(=O)(=O)c2ccc3nc[nH]c3c2)s1)C(F)(F)F)C(c1ccccc1)c1ccccc1 [Example 74, N-[(1S)-1-(5-{(1R)-1-[(1H-benzimidazol-6-ylsulfonyl)(3,3-dimethylbutyl)amino]-2-hydroxyethyl}thiophen-2-yl)-2,2,2-trifluoroethyl]-Nα-(methoxycarbonyl)-β-phenyl-L-phenylalaninamide] | 0.45 nM
COC(=O)N[C@H](C(=O)NCc1ccc([C@@H](CO)N(C(C)C)S(=O)(=O)c2ccc(N)cc2)s1)C(c1ccccc1)c1ccccc1 [Example 12] | 18.8 nM
COC(=O)N[C@H](C(=O)N[C@H](c1ccc([C@@H](CO)N(C(C)C)S(=O)(=O)c2ccc3cc[nH]c3c2)s1)C(F)(F)F)C(c1ccccc1)c1ccccc1 [Example 79, Nα-(methoxycarbonyl)-β-phenyl-N-[(1S)-2,2,2-trifluoro-1-(5-{(1R)-2-hydroxy-1-[(1H-indol-6-ylsulfonyl)(propan-2-yl)amino]ethyl}thiophen-2-yl)ethyl]-L-phenylalaninamide] | 12.5 nM
COC(=O)N[C@H](C(=O)NCc1ccc([C@@H](CO)N(CC2CC(F)(F)C2)S(=O)(=O)c2cccc(CC(C)(C)O)c2)s1)C(c1ccccc1)c1ccccc1 [Example 15] | 6.6 nM
COC(=O)N[C@H](C(=O)N[C@H](c1ccc([C@@H](CO)N(CCC(C)(C)C)S(=O)(=O)c2ccc3[nH]ncc3c2)s1)C(F)(F)F)C(c1ccccc1)c1ccccc1 [Example 93, N-[(1S)-1-(5-{(1R)-1-[(3,3-dimethylbutyl)(1H-indazol-5-ylsulfonyl)amino]-2-hydroxyethyl}thiophen-2-yl)-2,2,2-trifluoroethyl]-Nα-(methoxycarbonyl)-β-phenyl-L-phenylalaninamide] | 0.31 nM
COC(=O)N[C@H](C(=O)N[C@@H](C)c1ccc([C@@H](CO)N(CC(C)C)S(=O)(=O)c2ccc(N)cc2)s1)C(c1ccccc1)c1ccccc1 [Example 76, N-[(1S)-1-{5-[(1R)-1-{[(4-aminophenyl)sulfonyl](2-methylpropyl)amino}-2-hydroxyethyl]thiophen-2-yl}ethyl]-Nα-(methoxycarbonyl)-β-phenyl-L-phenylalaninamide] | 11.8 nM
COC(=O)N[C@H](C(=O)N[C@H](c1ccc([C@@H](CO)N(CCC(C)(C)C)S(=O)(=O)c2ccc(-c3ccn(C)n3)cc2)s1)C(F)(F)F)C(c1ccccc1)c1ccccc1 [Example 92] | 66.6 nM
COC(=O)N[C@H](C(=O)N[C@H](c1ccc([C@@H](CO)N(CCC(C)(C)C)S(=O)(=O)c2ccc3nn[nH]c3c2)s1)C(F)(F)F)C(c1ccccc1)c1ccccc1 [Example 101, N-[(1S)-1-(5-{(1R)-1-[(1H-benzotriazol-6-ylsulfonyl)(3,3-dimethylbutyl)amino]-2-hydroxyethyl}thiophen-2-yl)-2,2,2-trifluoroethyl]-Nα-(methoxycarbonyl)-β-phenyl-L-phenylalaninamide] | 0.84 nM
COC(=O)N[C@H](C(=O)N[C@H](c1ccc([C@@H](CO)N(CCC(C)(C)C)S(=O)(=O)c2cc3ccccc3s2)s1)C(F)(F)F)C(c1ccccc1)c1ccccc1 [Example 95, N-[(1S)-1-(5-{(1R)-1-[(1-benzothiophen-2-ylsulfonyl)(3,3-dimethylbutyl)amino]-2-hydroxyethyl}thiophen-2-yl)-2,2,2-trifluoroethyl]-Nα-(methoxycarbonyl)-β-phenyl-L-phenylalaninamide] | 6.95 nM
COC(=O)N[C@H](C(=O)NCc1ccc(C(CO)N(Cc2cccnc2OC)S(=O)(=O)c2ccc3scnc3c2)s1)C(c1ccccc1)c1ccccc1 (some centres unmarked) [Example 26] | 31 nM
COC(=O)N[C@H](C(=O)N[C@H](c1ccc([C@@H](CO)N(CCC(C)(C)C)S(=O)(=O)c2ccc3ncccc3c2)s1)C(F)(F)F)C(c1ccccc1)c1ccccc1 [Example 73, Methyl [(2S)-1-{[(1S)-1-(5-{(1R)-1-[(3,3-dimethylbutyl)(quinolin-6-ylsulfonyl)amino]-2-hydroxyethyl}thiophen-2-yl)-2,2,2-trifluoroethyl]amino}-1-oxo-3,3-diphenylpropan-2-yl]carbamate] | 2.03 nM
COC(=O)Nc1ccc(S(=O)(=O)N(CCC(C)(C)C)[C@H](CO)c2ccc([C@@H](NC(=O)[C@@H](NC(=O)OC)C(c3ccccc3)c3ccccc3)C(F)(F)F)s2)cc1 [Example 70, N-[(1S)-1-(5-{1-[(3,3-dimethylbutyl)({4-[(methoxycarbonyl)amino]phenyl}sulfonyl)amino]-2-hydroxyethyl}thiophen-2-yl)-2,2,2-trifluoroethyl]-Nα-(methoxycarbonyl)-β-phenyl-L-phenylalaninamide] | 3.16 nM
CC(C)CN(C(CO)c1ccc(CNC(=O)C(NC(=O)c2ccccc2)C(c2ccccc2)c2c[nH]nc2-c2ccccc2)s1)S(=O)(=O)c1ccc2ncsc2c1 (centres unmarked) [Example 130, N-[1-[[5-[1-(1,3-benzothiazol-6-ylsulfonyl(isobutyl)amino)-2-hydroxy-ethyl]-2-thienyl]methylcarbamoyl]-2-phenyl-2-(3-phenyl-1H-pyrazol-4-yl)ethyl]benzamide] | 952 nM
COC(=O)N[C@H](C(=O)N[C@H](c1ccc([C@@H](CO)N(CCC(C)(C)C)S(=O)(=O)c2ccc3scnc3c2)s1)C(F)(F)F)C(c1ccccc1)c1ccccc1 [Example 91, N-[(1S)-1-(5-{(1R)-1-[(1,3-benzothiazol-5-ylsulfonyl)(3,3-dimethylbutyl)amino]-2-hydroxyethyl}thiophen-2-yl)-2,2,2-trifluoroethyl]-Nα-(methoxycarbonyl)-β-phenyl-L-phenylalaninamide] | 2.9 nM
COC(=O)N[C@H](C(=O)N[C@H](c1ccc([C@@H](CO)N(CCC(C)(C)C)S(=O)(=O)c2ccc3ncsc3c2)s1)C(F)(F)F)C(c1ccccc1)c1ccccc1 [Example 100, N-[(1S)-1-(5-{(1R)-1-[(1,3-benzothiazol-6-ylsulfonyl)(3,3-dimethylbutyl)amino]-2-hydroxyethyl}thiophen-2-yl)-2,2,2-trifluoroethyl]-Nα-(methoxycarbonyl)-β-phenyl-L-phenylalaninamide] | 0.9 nM
CCN([C@H](CO)c1ccc([C@@H](NC(=O)[C@@H](NC(=O)OC)C(c2ccccc2)c2ccccc2)C(F)(F)F)s1)S(=O)(=O)c1ccc(N)cc1 [Example 62] | 18.5 nM
COC(=O)N[C@H](C(=O)NCc1ccc(C(CO)N(Cc2ccnc(OC)c2)S(=O)(=O)c2ccc3scnc3c2)s1)C(c1ccccc1)c1ccccc1 (some centres unmarked) [Example 27] | 15.5 nM
COC(=O)N[C@H](C(=O)NCc1ccc(C(CO)N(C(C)C)S(=O)(=O)c2ccc3scnc3c2)s1)C(c1ccccc1)c1ccccc1 (some centres unmarked) [Example 21] | 62.4 nM
